Data as given in US20130085161A1, “PIPERIDINYL SUBSTITUTED 1,3-DIHYDRO-BENZOIMIDAZOL-2-YLIDENEAMINE DERIVATIVES” (NOVARTIS AG, priority 2010, published 2013).
pIC50: −log10 of the molar value.

Each compound was assayed against T1, BaF3-Tel-IGF1-R (Homo sapiens, UniProt P08069) (assay: BaF3 cell viability assay (resazurin/AlamarBlue), 96-well format). Settings: 96-well plate format; 48 h incubation; resazurin dye reduction; cell proliferation/viability.
T1 construct: the kinase domain of IGF-1R (aa 976-1367) linked by a Ser-Arg-linker; expressed in transfected cells; host or cells: BaF3 murine proB-cell lymphoma cells, stably transduced
T1 sequence (P08069 976-1367): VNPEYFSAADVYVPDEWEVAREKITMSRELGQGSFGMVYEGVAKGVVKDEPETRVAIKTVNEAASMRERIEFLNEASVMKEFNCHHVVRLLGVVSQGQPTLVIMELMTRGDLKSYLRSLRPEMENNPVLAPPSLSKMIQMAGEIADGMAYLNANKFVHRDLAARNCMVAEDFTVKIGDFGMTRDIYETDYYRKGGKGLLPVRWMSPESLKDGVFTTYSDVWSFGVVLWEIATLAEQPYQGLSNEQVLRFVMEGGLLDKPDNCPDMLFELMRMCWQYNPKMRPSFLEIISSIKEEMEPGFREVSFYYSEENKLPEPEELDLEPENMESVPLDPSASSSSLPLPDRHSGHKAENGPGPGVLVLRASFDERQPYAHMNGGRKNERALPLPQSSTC
Type: cell-based
Text: BaF3-Tel-IGF1-R and BaF3-InsR are BaF3 murine proB-cell lymphoma cell derivatives [the BaF3 cell line (also termed Ba/F3) is available from the German Collection of Microorganisms and Cell Cultures (DSMZ), Braunschweig, Germany] that have been rendered IL-3-independent by stable transduction with kinase-activating fusions between human TEL (aa 1-452) and the kinase domain of IGF-1R (aa 976-1367) linked by a Ser-Arg-linker (Boulay et al, Cancer Res 68, 3743-3751, 2008), and a fusion between human TEL (aa 1-337) and the kinase domain (aa 1015-1382) of the Insulin receptor (Melnick J S et al, Proc Natl Acad Sci USA 103, 3153-3158, 2006), respectively. Cells are cultured in RPMI-1640 (Animed #1-14F01-1) supplemented with 2% L-glutamine (Animed #5-10K50-H) and 10% fetal calf serum (FCS, Animed #2-01F16-I). Wild-type, untransfected BaF3 cells are maintained in above medium plus 10 U/ml IL-3 (mouse Interleukin-3, Roche #1380745 or Invitrogen # PMC0035) and are used to identify non-selective, generally growth-inhibitory compounds. Cells (1.5×10^4 cells per well) are seeded in 190 μl fresh medium into 96-well plates. […] In addition, a plate blank value is routinely determined in a well containing only 100 μl of medium and no cells. […] Following incubation of the cells for 48 h at 37° C. and 5% CO2, the effect of inhibitors on cell viability is assessed by the resazurin sodium salt dye reduction assay (commercially known as AlamarBlue assay) basically as previously described (O'Brien J. et al., Eur. J. Biochem. 267: 5421-5426, 2000). […] Thereafter, fluorescence is measured using a Saphirell 96-well plate reader (TECAN, Männedorf, Switzerland) with the following settings: Excitation 544 nm and Emission 590 nm. […] The effect of a particular test compound concentration on cell proliferation and viability is expressed as percentage of the blank-corrected reading obtained for cells treated with vehicle only, which is set as 100%. IC50 values can be determined using XLfit (V4.2), applying standard four parameter logistic model #205 (IDBS, Guilford, UK) or other common curve-fitting software.

SMILES | pIC50
Cc1cccc(N2CCC(n3c(=N)n(Cc4cc(F)ccc4Cl)c4ccccc43)CC2)c1 [Example 55, 1-(2-Chloro-5-fluoro-benzyl)-3-(1-m-tolyl-piperidin-4-yl)-1,3-dihydro-benzoimidazol-2-ylideneamine] | 6.54
CC(=O)Nc1ccccc1N1CCC(n2c(=N)n(Cc3ccccc3Cl)c3ccccc32)CC1 [Example 56.6, N-(2-{4-[3-(2-Chloro-benzyl)-2-imino-2,3-dihydro-benzoimidazol-1-yl]-piperidin-1-yl}-phenyl)-acetamide] | 7.03
Cc1cccc(N2CCC(n3c(=N)n(Cc4ccccc4Cl)c4ccccc43)CC2)c1 [Example 54, 1-(2-Chloro-benzyl)-3-(1-m-tolyl-piperidin-4-yl)-1,3-dihydro-benzoimidazol-2-ylideneamine] | 6.39

What follows are compounds tested against T1, BaF3-Tel-IGF1-R (assay: BaF3 cell viability assay (resazurin), 384-well format). Settings: 384-well plate format; 48 h incubation; resazurin dye reduction; cell proliferation/viability.
Type: cell-based
Text: BaF3-Tel-IGF1-R and BaF3-InsR are BaF3 murine proB-cell lymphoma cell derivatives [the BaF3 cell line (also termed Ba/F3) is available from the German Collection of Microorganisms and Cell Cultures (DSMZ), Braunschweig, Germany] that have been rendered IL-3-independent by stable transduction with kinase-activating fusions between human TEL (aa 1-452) and the kinase domain of IGF-1R (aa 976-1367) linked by a Ser-Arg-linker (Boulay et al, Cancer Res 68, 3743-3751, 2008), and a fusion between human TEL (aa 1-337) and the kinase domain (aa 1015-1382) of the Insulin receptor (Melnick J S et al, Proc Natl Acad Sci USA 103, 3153-3158, 2006), respectively. Cells are cultured in RPMI-1640 (Animed #1-14F01-1) supplemented with 2% L-glutamine (Animed #5-10K50-H) and 10% fetal calf serum (FCS, Animed #2-01F16-I). Wild-type, untransfected BaF3 cells are maintained in above medium plus 10 U/ml IL-3 (mouse Interleukin-3, Roche #1380745 or Invitrogen # PMC0035) and are used to identify non-selective, generally growth-inhibitory compounds. Cells (1.5×10^4 cells per well) are seeded in 190 μl fresh medium into 96-well plates. 10 μl 20× compound solutions are added. As internal control, the kinase inhibitor PKC412 is routinely used. Control cells treated with DMSO (0.1% final concentration) serve as growth reference (set as 100% growth). In addition, a plate blank value is routinely determined in a well containing only […] of medium and no cells. IC50 determinations are performed based on eight 3-fold serial dilutions of the test compound, starting at 10 μM. Following incubation of the cells for 48 h at 37° C. and 5% CO2, the effect of inhibitors on cell viability is assessed by the resazurin sodium salt dye reduction assay (commercially known as AlamarBlue assay) basically as previously described (O'Brien J. et al., Eur. J. Biochem. 267: 5421-5426, 2000). Briefly, 20 μl dye solution is added per well and the plates incubated for 6 h at 37° C. and 5% CO2. Thereafter, fluorescence is measured using a Saphirell 96-well plate reader (TECAN, Männedorf, Switzerland) with the following settings: Excitation 544 nm and Emission 590 nm. For data analysis, the plate blank value is subtracted from all data points. The effect of a particular test compound concentration on cell proliferation and viability is expressed as percentage of the blank-corrected reading obtained for cells treated with vehicle only, which is set as 100%. IC50 values can be determined using XLfit (V4.2), applying standard four parameter logistic model #205 (IDBS, Guilford, UK) or other common curve-fitting software.
To achieve a higher throughput, the cell viability assay can also be performed in a 384-well format. Briefly, 4′500 freshly diluted cells are seeded in 54 μl/well into 384-well plates using a liquid dispenser. 6 μl 10× compound solution is added to the cell plate. As internal control, the kinase inhibitor PKC412 is routinely used. Control cells treated with DMSO (0.1% final concentration) serve as growth reference (set as 100% growth). In addition, a plate blank value is routinely determined in a well containing only 60 μl of medium and no cells. Dose-response effects are determined by 3-fold serial compound dilutions, starting at 10 μM. Following incubation of the cells for 48 h at 37° C. and 5% CO2, the effect of compounds on cell proliferation/viability is assessed by addition of 6 μl resazurin sodium salt dye solution per well. Following incubation for an additional 6 hrs at 37° C. and 5% CO2, fluorescence is measured using an Infiniti M1000 microplate reader (TECAN, Männedorf, Switzerland) with excitation and emission wavelengths set at 544 and 590 nm, respectively. For data analysis, the plate blank value is subtracted from all data points. IC50 values can be determined by four parameter logistic fitting as described above.

SMILES | pIC50
CC(=O)Nc1ccccc1N1CCC(n2c(=N)n(Cc3ccccc3Cl)c3ccccc32)CC1 [Example 56.6, N-(2-{4-[3-(2-Chloro-benzyl)-2-imino-2,3-dihydro-benzoimidazol-1-yl]-piperidin-1-yl}-phenyl)-acetamide] | 6.83
CC(=O)Nc1ccc(C)nc1N1CCC(n2c(=N)n(Cc3cccc4[nH]ccc34)c3ccc(F)cc32)CC1 [Example 65, N-{4-[6-Fluoro-2-imino-3-(1H-indol-4-ylmethyl)-2,3-dihydro-benzoimidazol-1-yl]-6′-methyl-3,4,5,6-tetrahydro-2H-[1,2′]bipyridinyl-3′-yl}-acetamide] | 8.30
COc1ccc(NC(C)=O)c(N2CCC(n3c(=N)n(Cc4ccccc4Cl)c4ccccc43)CC2)c1 [Example 56.10, N-(2-{4-[3-(2-Chloro-benzyl)-2-imino-2,3-dihydro-benzoimidazol-1-yl]-piperidin-1-yl}-4-methoxy-phenyl)-acetamide] | 7.06
CC(=O)Nc1ccc(C(F)(F)F)cc1N1CCC(n2c(=N)n(Cc3ccccc3Cl)c3ccc(F)cc32)CC1 [Example 56.17, N-(2-{4-[3-(2-Chloro-benzyl)-6-fluoro-2-imino-2,3-dihydro-benzoimidazol-1-yl]-piperidin-1-yl}-4-trifluoromethyl-phenyl)-acetamide] | 7.42
CC(=O)Nc1ccc(C)nc1N1CC[C@H](n2c(=N)n(Cc3ccccc3Cl)c3ccc(F)cc32)[C@@H](O)C1 (racemic) [Example 67.2, Rac-trans-N-{4-[3-(2-Chloro-benzyl)-6-fluoro-2-imino-2,3-dihydro-benzoimidazol-1-yl]-3-hydroxy-6′-methyl-3,4,5,6-tetrahydro-2H-[1,2′]bipyridinyl-3′-yl}-acetamide] | 7.21
CC(=O)Nc1ccc(C(F)(F)F)cc1N1CCC(n2c(=N)n(Cc3cccc4[nH]nnc34)c3ccccc32)CC1 [Example 56.8, N-(2-{4-[3-(1H-Benzotriazol-4-ylmethyl)-2-imino-2,3-dihydro-benzoimidazol-1-yl]-piperidin-1-yl}-4-trifluoromethyl-phenyl)-acetamide] | 6.68
COc1ccc(NC(C)=O)c(N2CCC(n3c(=N)n(Cc4cccc5[nH]ccc45)c4ccc(F)cc43)CC2)c1 [Example 56.13, N-(2-{4-[6-Fluoro-2-imino-3-(1H-indol-4-ylmethyl)-2,3-dihydro-benzoimidazol-1-yl]-piperidin-1-yl}-4-methoxy-phenyl)-acetamide] | 8.05
